Where a name gives a salt, the structure may show the parent alone.
Key:
[1] = system: PBMCs from ALL patients; test: Primary screening of FDA approved drug library, TitreGlo/CellTiter-Glo cell viability, PBMCs from ALL patients; type: cell-based, human; settings: compound 10 uM, PBMCs from ALL patients, average over patients, relative to high control (0%) and no-cell low control (100%); for inhibition at 10 µM: Homo sapiens, PBMC, read-out: % Inhibition, ALL Average
Experimental: (§1) Whole blood was taken from experimental group patients and control group patients. The collected blood was transferred to EDTA tubes with a 5 mL pipette and a pipette aid and then to each EDTA tubes corresponding 50 ml centrifuge tubes. All the blood from one patient was placed into 1 tube (50 mL) and an equal volume of PBS was added to the 50 mL centrifuge tube. The sample was then mixed by either inverting the tube or pipetting up & down. The blood was transferred into tow 50 mL leucosep tube and centrifuged at room temperature (18-20° C.) for 15 minutes at 800×g with the brake turned off and acceleration at 2/deceleration at zero. After centrifugation, the white cell interface (buffy coat) was removed by pasture pipette and transferred to the new appropriately labelled 50 ml centrifuge tube. 25 mL PBS was added to the white cell interface (buffy coat) and the mix was centrifuged for 10 minutes at room temperature at 400×g with the brake off and acceleration at 4 & deceleration at 2. The supernatant was discarded from the pellet carefully in an appropriate manner. The pellet was washed another time with 20 mL by centrifugation for 5 minutes as above. The pellet was re-suspended in 5 mL and cells were counted using V-Cell. The cells were then either used directly as fresh for screening or frozen in liquid nitrogen in 10% DMSO/RPMPI media until use.
(§2) The assay used for TitreGlo (Promega) to measure cell viability based on the ATP production. […] The assay was developed in a 384-well plate with 2500 cell/well in 50 uL total volume. Alternatively, the assay could be developed in a 96-well plate with 10,000 cells/well. […] Z′ as a statistics factor was calculated as follows:
(§3) Each compound from the ENZO FDA SCREEN-WELL® FDA approved drug library V2 (0.10 μl in 100% DMSO) was transferred to white, 384-well, PS, Cellstar plates (Greiner Bio-One) using the Echo® Liquid Handler (Labcyte Inc.). Each plate contained one column for the High/Low Controls. The Low Control (1% DMSO v/v in column 23, no cells) and the High Control (final 1% DMSO v/v in column 24, with cells) were employed to calculate the Z′ for each assay plate. […] At 24 h post seeding, baseline growth was assessed using a control plate and CellTiter-Glo (CTG) reagent (Promega Corporation). Briefly, 20 μL/well of CTG detection mix was added and plates were read using an EnVision Multimode plate reader (PerkinElmer) after 10 min incubation in the dark. The raw luminescence signal was normalized in ActivityBase XE with outliers in control wells eliminated according to the 3-sigma method to yield percentage of cell viability by using the High Control (HC) containing cells in 1% DMSO v/v (Carl Roth) and the Low Control containing 1% DMSO v/v (Carl Roth). All Medium-Throughput Screening experiments were performed in duplicate for each patient. […] The raw luminescence signal was processed using Graph Pad Prism (Graph Pad Software Inc.) with outliers in control wells eliminated according to the 3-sigma method. The dose-response curves were analyzed using a 4 parameter sigmoidal fit to obtain plausible results in the case non-sigmoidal dose-response curves.
(§4) The Screen-Well FDA approved drug library was screened, which contains 780 approved drugs. […] The final DMSO concentration in the assay plate was 0.1% of total volume. […] The average of all four control samples was then calculated and used to determine the positive “hits” in patients' samples.
(§5) Each average patient samples were plotted against average of the control samples to identify the positive hits.

[2] = system: PBMC from CML patients; test: Confirmation of positive hits, dose-response TiterGlo growth inhibition, PBMC from CML patients versus healthy controls; type: cell-based, human; settings: freshly prepared stock from solid, 24 hr incubation
Experimental: FIG. 2A depicts data of isoproterenol inducing cell death preferentially in chronic myelogenous leukemia (CML) patients' primary PBMC as compared to PBMC from healthy individuals (Control, CTL) when incubated with different concentrations of isoproterenol prepared from liquid stock. FIG. 2B depicts data of isoproterenol inducing cell death preferentially in chronic myelogenous leukemia (CML) patients' primary PBMC as compared to PBMC from healthy individuals (Control, CTL) when incubated with different concentrations of isoproterenol prepared from a solid.

[3] = system: PBMCs from CML patients; test: Primary screening of FDA approved drug library, TitreGlo/CellTiter-Glo cell viability, PBMCs from CML patients; type: cell-based, human; settings: compound 10 uM, PBMCs from CML patients, average over patients, relative to high control (0%) and no-cell low control (100%); for inhibition at 10 µM: Homo sapiens, PBMC, read-out: % Inhibition, CML Average
Experimental: as §1, §2, §3, §5
Samples from 4 patients were screened against the FDA approved drug library where the Negative Control (High control) contained cells treated with DMSO and the Positive Control (Low control) were based using no cells. The screening was carried out in 96 well plates. The raw luminescence counts were normalized and the % Inhibition was calculated relative to the high control (0% Inhibition) and the low control (100% Inhibition).

[4] = system: PBMC from CLL patients; test: Confirmation of positive hits, dose-response TiterGlo growth inhibition, PBMC from CLL patients versus healthy controls
Experimental: as §3
Compound plates were prepared from the same stock used in the original screening and each compound was tested at 16 concentration point with 100 uM being the highest concentration and the dilution factor was ⅓ between two points.
The TitreGlo was performed as described and the curve for growth inhibition was plotted using activity base to calculate the EC50.

[5] = system: PBMCs from CLL patients; test: Primary screening of FDA approved drug library, TitreGlo/CellTiter-Glo cell viability, PBMCs from CLL patients; type: cell-based, human; settings: compound 10 uM, PBMCs from CLL patients, average over patients, relative to high control (0%) and no-cell low control (100%); for inhibition at 10 µM: Homo sapiens, PBMC, read-out: % Inhibition, CLL Average
Experimental: as §1, §2, §3, §4, §5

[6] = system: PBMCs from AML patients; test: Primary screening of FDA approved drug library, TitreGlo/CellTiter-Glo cell viability, PBMCs from AML patients; type: cell-based, human; settings: compound 10 uM, PBMCs from AML patients, average over patients, relative to high control (0%) and no-cell low control (100%); for inhibition at 10 µM: Homo sapiens, PBMC, read-out: % Inhibition, AML Average
Experimental: as §1, §2, §3, §4, §5

Compound	inhibition at 10 µM [1]	inhibition at 10 µM [3]	inhibition at 10 µM [5]	inhibition at 10 µM [6]	further results
CC(C)NCC(O)c1ccc(O)c(O)c1 (racemic) [(±) Isoproterenol HCl]	61.7%	65.3%	39.9%		EC50 of growth inhibition, times higher in control PBMC compared to PBMC from CML patients [2]: 4.4 times; EC50 of growth inhibition, times higher in control PBMC compared to PBMC from CLL patients ([4]; freshly prepared stock from solid, 24 hr incubation, TiterGlo): 4.8 times
C[C@](N)(Cc1ccc(O)c(O)c1)C(=O)O [Methyldopa]					Effect on CLL PBMC compared to control cells ([4]; dose-response, FIG. 3): show an effect on CLL PBMC better than control cell
Cc1cc2c(s1)Nc1ccccc1N=C2N1CCN(C)CC1 [Olanzapine]	71.8%	79.5%	-26.5%	1.8%	Induction of cell death in PBMC from CLL patients compared to control cells ([4]; fresh primary cells, FIG. 4A-4D): shown to induce cell death in PBMC from CLL patients compared to control cells; Effect on PBMC when primary cells are tested after freezing ([4]; primary cells tested after freezing): the effect is not observed
CO[C@H]1/C=C/O[C@@]2(C)Oc3c(C)c(O)c4c(O)c(c5c(nc6cc(C)ccn65)c4c3C2=O)NC(=O)/C(C)=C\C=C\[C@H](C)[C@H](O)[C@@H](C)[C@@H](O)[C@@H](C)[C@H](OC(C)=O)[C@@H]1C [Rifaximin]	-45.4%	42.3%	-60.2%	-42.8%	
CS(=O)(=O)CCNCc1ccc(-c2ccc3ncnc(Nc4ccc(OCc5cccc(F)c5)c(Cl)c4)c3c2)o1 [Lapatinib Ditosylate]	35.1%	76.6%	6.9%	-76.1%	
COc1cccc2c1C(=O)c1c(O)c3c(c(O)c1C2=O)C[C@@](O)(C(C)=O)C[C@@H]3O[C@H]1C[C@H](N)[C@H](O)[C@H](C)O1 [Daunorubicin HCl]	78.4%	67.6%	65.5%	64%	
O=c1[nH]c2ccccc2n1C1CCN(CCCC(c2ccc(F)cc2)c2ccc(F)cc2)CC1 [Pimozide]	58.8%	69%	39.5%	42.3%	
CC(=O)OC[C@H]1O[C@@H]([S-])[C@H](OC(C)=O)[C@@H](OC(C)=O)[C@@H]1OC(C)=O.CCP(CC)CC.[Au+] [Auranofin]					% Inhibition, ALL Average [1]: 102.9%; % Inhibition, CML Average [3]: 94.9%; % Inhibition, AML Average [6]: 96.7%; % Inhibition, CLL Average [5]: 96.0%

From patent US10639382B2, “Method for treating leukemia” (National Guard Health Affairs, priority 2017, dated 2020)
